# Test results from patent US10450335B2, “Antiviral oxime phosphoramide compounds” (Merck Sharp & Dohme Corp., priority 2015, dated 2019).
# Like-named read-outs stand apart in the source and are kept apart here.
# How the values were obtained:
# [1] = test system: HIV-1 (H9/IIIB strain); experiment: Viking assay: antiviral potency in a multiple round HIV-1 infection assay in MT4-GFP cells; format: cell-based; details: Human immunodeficiency virus 1, IIIB, MT4-GFP cells infected with HIV-1 H9/IIIB, inhibition of reproductive ratio R0
# Procedure: Assessing Antiviral Potency in a Multiple Round HIV-1 Infection Assay (Viking Assay)
# The antiviral activity of the tenofovir prodrugs of the Examples herein was assessed in an assay that measures the rate of replication of HIV in cell culture, termed the Viking assay (VIral KINetics in Green cells) and performed as follows. HIV-1 replication was monitored using MT4-gag-GFP clone D3 (hereafter designated MT4-GFP), which are MT-4 cells modified to harbor a GFP reporter gene, the expression of which is dependent on the HIV-1 expressed proteins tat and rev. Productive infection of an MT4-GFP cell with HIV-1 results in GFP expression approximately 24 h post-infection. MT4-GFP cells were maintained at 37° C./5% CO2/90% relative humidity in RPMI 1640 supplemented with 10% fetal bovine serum, 100 U/ml penicillin/streptomycin, and 400 μg/ml G418 to maintain the reporter gene. For infections, MT4-GFP cells were placed in the same medium lacking G418 and infected overnight with HIV-1 (H9/IIIB strain) virus at an approximate multiplicity of infection of 0.01 in the same incubation conditions. Cells were then washed and re-suspended in either RPMI 1640 supplemented with 10% or 50% normal human serum (NHS) at 1.6×10^5 cells/mL (10% NHS or 50% NHS, respectively). Compound plates were prepared by dispensing compounds dissolved in DMSO into wells of 384 well poly-D-lysine-coated plates (0.2 μl/well) using an ECHO acoustic dispenser. Each compound was tested in a 10-point serial 3-fold dilution (typical final concentrations: 8.4 μM-0.42 nM). Controls included no inhibitor (DMSO only) and a combination of three antiviral agents (efavirenz, indinavir, an in-house integrase strand transfer inhibitor at final concentrations of 4 μM each). Cells were added (50 μL/well) to compound plates and the infected cells were maintained at 37° C./5% CO2/90% relative humidity.
# Infected cells were quantified at two time points, ˜48 h and ˜72 h post-infection, by counting the number of green cells in each well using an Acumen eX3 scanner. The increase in the number of green cells over ˜24 h period gives the reproductive ratio, R0, which is typically 5-15 and has been shown experimentally to be in logarithmic phase (data not shown). Inhibition of R0 is calculated for each well, and IC50s determined by non-linear 4-parameter curve fitting.
# [2] = Prodrug stability assay in bio-relevant media (FaSSIF with Pancreatin, GI tract stability); format: in vitro ADME; details: HPLC peak area of prodrug at 5 h / 0 h, 0.5 mg/mL Pancreatin in FaSSIF, 37° C.
# Procedure: Prodrug Stability Assay in Bio-Relevant Media
# The following assay was employed to evaluate the stability of the prodrugs in simulated gastrointestinal tract conditions. Preparation of fasted state simulated intestinal fluid (FaSSIF) using Phares SIF Powder was carried out according to protocols from Phare Drug Delivery AG (Baselland, Switzerland). For sample preparation, 10 μL stock solutions (10 mM) of prodrug substance in DMSO was added to 990 μL of 0.5 mg/mL Pancreatin solution (Fisher CAS#8049-47-6) in FaSSIF. Two samples were prepared for each compound. If the sample was a clear solution, it was directly analyzed by HPLC. If the sample was not clear, the sample was […] at 37° C. and observed 5 h later. If the sample was clear, HPLC analysis was directly performed. If the sample was still not clear, the sample was diluted with 100% ACN and assayed by HPLC. All the samples were vortexed for 3 min and observed before injection. For the diluted samples, the area is multiplied by a dilution factor when the data is analyzed. The analysis was carried out with an Agilent 1100 series HPLC with autosampler. The column was a Poroshell 120 EC-C18, 4.6×50 mm, […]. The flow rate was 1.8 mL/min, and the injection volume was 5 or 10 μL. UV detection was in the range 210-400 nm. The mobile phase consisted of solvent A (water plus 10 mM tetrabutylammonium bromide) and solvent B (acetonitrile) with a gradient of: 90% solvent A at 0 min, changing to 95% solvent B over 6 min, maintaining for 1.5 min, then reverting to 90% solvent A over 1.6 min. The HPLC peak area of the prodrug at 5 h was divided by the HPLC peak area of the prodrug at 0 h, to generate the % claimed parent ratio, which is summarized in Table 2 for gastrointestinal (GI) Tract stability.
# [3] = 10% normal human serum, read-out: Viking, IC50 (10% NHS)
# [4] = 50% normal human serum, read-out: Viking, IC50 (50% NHS)
compound,measurement,setting,value
"CC(C)CC(CC(C)C)=NOP(=O)(CO[C@H](C)Cn1cnc2c(N)ncnc21)NC(C)(C)C(=O)OC(C)C (single isomer, unassigned) [Example 28]",IC50,[1]; [3],0.7 nM
same,IC50,[1]; [4],3.8 nM
same,GI Tract stability,[2],93.1%
"CC(C)OC(=O)[C@H](C)NP(=O)(CO[C@H](C)Cn1cnc2c(N)ncnc21)ON=C(C1CC1)C1CC1 (stereo partly drawn) [Example 10, isopropyl (((((R)-1-(6-amino-9H-purin-9-yl)propan-2-yl)oxy)methyl)(((dicyclopropylmethyl-ene)amino)oxy)phosphoryl)-L-alaninate]",IC50,[1]; [3],46.8 nM
same,IC50,[1]; [4],228 nM
same,GI Tract stability,[2],95.0%
"CC(C)=NOP(=O)(CO[C@H](C)Cn1cnc2c(N)ncnc21)NC(C)(C)C(=O)OC(C)C (stereo partly drawn) [Example 22, isopropyl 2-(((R)-((((R)-1-(6-amino-9H-purin-9-yl)propan-2-yl)oxy)methyl)((propan-2-ylideneamino)oxy)phosphoryl)amino)-2-methylpropanoate; and isopropyl 2-(((S)-((((R)-1-(6-amino-9H-purin-9-yl)propan-2-yl)oxy)methyl)((propan-2-ylideneamino)oxy)phosphonyl)amino)-2-methylpropanoate]",GI Tract stability,[2],98.1%
butyl 2-(((R)-((((R)-1-(6-amino-9H- purin-9-yl)propan-2- yl)oxy)methyl)((propan-2- ylideneamino)oxy)phosphoryl)amino)- 2-methylpropanoate; and butyl 2-(((S)-((((R)-1-(6-amino-9H- purin-9-yl)propan-2- yl)oxy)methyl)((propan-2- ylideneamino)oxy)phosphoryl)amino)- 2-methylpropanoate [Example 23],GI Tract stability,[2],99.0%
